Patent publication US20140011799A1 (Bristol-Myers Squibb Company, priority 2012, published 2014)

The molecules below were run against T1, Endothelial lipase (EL) (Homo sapiens, UniProt Q9Y5X9) (assay: Endothelial lipase (EL) enzymatic assay, fluorescent substrate A10070 in DMPG vesicles). Conditions: EL from conditioned media of HT-1080 cells; compound preincubated 30 min at 37° C; read-out: EL IC50.
T1 construct: HT-1080 cells that were transformed using RAGE technology (Athersys) to overexpress endogenous EL; endogenous in cells; conditioned medium used
T1 sequence (Q9Y5X9 21-500): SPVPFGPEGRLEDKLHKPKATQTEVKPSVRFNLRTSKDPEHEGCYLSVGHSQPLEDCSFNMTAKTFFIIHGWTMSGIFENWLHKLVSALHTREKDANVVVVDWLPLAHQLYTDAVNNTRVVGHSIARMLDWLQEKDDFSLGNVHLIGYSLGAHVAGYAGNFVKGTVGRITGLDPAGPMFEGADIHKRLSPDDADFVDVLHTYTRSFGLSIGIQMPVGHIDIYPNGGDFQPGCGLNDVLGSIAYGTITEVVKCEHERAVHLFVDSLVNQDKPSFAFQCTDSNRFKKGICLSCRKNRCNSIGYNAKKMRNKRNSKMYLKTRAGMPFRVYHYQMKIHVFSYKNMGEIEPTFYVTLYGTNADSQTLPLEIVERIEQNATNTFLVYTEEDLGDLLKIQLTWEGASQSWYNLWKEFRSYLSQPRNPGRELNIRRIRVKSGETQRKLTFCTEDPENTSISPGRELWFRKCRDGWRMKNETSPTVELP
Format: biochemical
Procedure, shortened: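 EL from conditioned medium of HT-1080 cells engineered to overexpress endogenous EL; HL partially purified from conditioned medium of HL-overexpressing COS cells. Enzyme preincubated with compound 30 min at 37° C in 50 mM HEPES pH 8.0, 50 mM NaCl, 1 mM CaCl2; DMPG vesicles carrying FRET substrate (0.11 mole fraction) then added.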

SMILES	IC50 [nM]
CS(=O)(=O)C(c1nnc(CN)o1)c1nc2ccc(-c3ccccc3)cc2s1 (stereo not drawn) [Example 85, (5-((Methylsulfonyl)(6-phenylbenzo[d]thiazol-2-yl)methyl)-1,3,4-oxadiazol-2-yl)methanamine]	48
NS(=O)(=O)NCc1nnc(C(c2nc3ccc(-c4ccccc4)cc3s2)S(=O)(=O)Cc2ccc(Cl)c(Cl)c2)o1 (stereo not drawn) [Example 60, N-((5-(((3,4-chlorobenzyl)sulfonyl)(6-phenyl-1,3-benzothiazol-2-yl)methyl)-1,3,4-oxadiazol-2-yl)methyl)sulfamide]	< 10
CCNC(=O)NCc1nnc(C(c2nc3ccc(-c4ccccc4)cc3s2)S(C)(=O)=O)o1 (stereo not drawn) [Example 87, 1-Ethyl-3((5-((methylsulfonyl)(6-phenylbenzo[d]thiazol-2-yl)methyl)-1,3,4-oxadiazol-2-yl)methyl)urea]	46
NS(=O)(=O)NCc1nnc(C(c2nc3ccc(-c4ccc(F)nc4)cc3s2)S(=O)(=O)Cc2ccc(F)nc2)o1 (stereo not drawn) [Example 77, N-({5-[6-(6-fluoro-3-pyridinyl)-1,3-benzothiazol-2-yl({[6-fluoro-pyridin-3-yl]methyl}sulfonyl)methyl]-1,3,4-oxadiazol-2-yl}methyl)sulfuric diamide]	18
CC1(Cc2nnc(C(c3nc4ccc(-c5ccc(F)nc5)cc4s3)S(C)(=O)=O)o2)NC(=O)NC1=O (single isomer, unassigned; isomer b) [Example 22, 5-((5-((6-(6-fluoropyridin-3-yl)benzo[d]thiazol-2-yl)(methylsulfonyl)methyl)-1,3,4-oxadiazol-2-yl)methyl)-5-methylimidazolidine-2,4-dione (Isomer B)]	27
CS(=O)(=O)C(c1nnc(CC2SC(=O)NC2=O)o1)c1nc2ccc(-c3ccccc3)cc2s1 (stereo not drawn) [Example 31, 5-((5-((methylsulfonyl) (6-phenyl-1,3-benzothiazol-2-yl)methyl)-1,3,4-oxadiazol-2-yl)methyl)-1,3-thiazolidine-2,4-dione]	< 10
NS(=O)(=O)NCc1nnc(C(c2nc3ccc(-c4ccccc4)cc3s2)S(=O)(=O)Cc2cc(Cl)cc(Cl)c2)o1 (stereo not drawn) [Example 59, N-((5-(((3,5-dichlorobenzyl)sulfonyl)(6-phenyl-1,3-benzothiazol-2-yl)methyl)-1,3,4-oxadiazol-2-yl)methyl)sulfamide]	< 10
NS(=O)(=O)NCc1nnc(C(c2nc3ccc(-c4ccccc4)cc3s2)S(=O)(=O)Cc2cc(C(F)(F)F)cc(C(F)(F)F)c2)o1 (stereo not drawn) [Example 72, N-((5-(((3,5-bis (trifluoromethyl)benzyl)sulfonyl) (6-phenyl-1,3-benzothiazol-2-yl)methyl)-1,3,4-oxadiazol-2-yl)methyl)sulfamide]	< 10
CC(C)(C)OC(=O)N(Cc1nnc(C(c2nc3ccc(-c4ccccc4)cc3s2)S(C)(=O)=O)o1)S(C)(=O)=O (stereo not drawn) [Example 84, tert-Butyl methylsulfonyl((5-((methylsulfonyl)(6-phenylbenzo[d]thiazol-2-yl)methyl)-1,3,4-oxadiazol-2-yl)methyl)carbamate]	< 10
CN1CCN(C(=O)c2ccc(-c3ccc4nc(C(c5nnc(CNS(N)(=O)=O)o5)S(C)(=O)=O)sc4c3)cc2)CC1 (stereo not drawn) [Example 80, N-((5-((6-(4-((4-methyl-1-piperazinyl)carbonyl)phenyl)-1,3-benzothiazol-2-yl)(methylsulfonyl)methyl)-1,3,4-oxadiazol-2-yl)methyl)sulfamide]	57
O=S(=O)(CCC(F)(F)F)NS(=O)(=O)Cc1nnc(C(c2nc3ccc(-c4ccccc4)cc3s2)S(=O)(=O)CCC(F)(F)F)o1 (stereo not drawn) [Example 36, 3,3,3-trifluoro-N-(((5-((6-phenylbenzo[d]thiazol-2-yl)((3,3,3-trifluoropropyl)sulfonyl)methyl)-1,3,4-oxadiazol-2-yl)methyl)sulfonyl)propane-1-sulfonamide]	< 10
CC1(Cc2nnc(C(c3nc4ccc(-c5ccc(F)nc5)cc4s3)S(C)(=O)=O)o2)SC(=O)NC1=O (single isomer, unassigned; isomer b) [Example 18, 5-((5-((6-(6-fluoropyridin-3-yl)benzo[d]thiazol-2-yl)(methylsulfonyl)methyl)-1,3,4-oxadiazol-2-yl)methyl)-5-methylthiazolidine-2,4-dione (Isomer B)]	< 10
NS(=O)(=O)NCc1nnc(C(c2nc3ccc(-c4ccccc4)cc3s2)S(=O)(=O)CC2CC2)o1 (stereo not drawn) [Example 61, N-[(5-{6-phenyl-1,3-benzothiazol-2-yl [(cyclopropylmethyl)sulfonyl]methyl}-1,3,4-oxadiazol-2-yl)methyl]sulfuric diamide]	< 10
Cc1cc2nc(C(c3nnc(CC4SC(=O)NC4=O)o3)S(C)(=O)=O)sc2cc1-c1ccccc1 (stereo not drawn) [Example 96, 5-((5-((5-methyl-6-phenylbenzo[d]thiazol-2-yl)(methyl-sulfonyl)methyl)-1,3,4-oxadiazol-2-yl)methyl)thiazolidine-2,4-dione]	< 10
NS(=O)(=O)NCc1nnc(C(c2nc3ccc(-c4ccccc4)cc3s2)S(=O)(=O)CCC(F)(F)F)o1 (stereo not drawn) [Example 50, N-[(5-{(6-phenyl-1,3-benzothiazol-2-yl) [(3,3,3-trifluoropropyl)sulfonyl]methyl}-1,3,4-oxadiazol-2-yl)methyl]sulfuric diamide]	< 10
Cn1cc(-c2ccc3nc(C(c4nnc(CC5SC(=O)NC5=O)o4)S(C)(=O)=O)sc3c2)cn1 (stereo not drawn) [Example 24, 5-((5-((6-(1-methyl-1H-pyrazol-4-yl)benzo[d]thiazol-2-yl)(methylsulfonyl)methyl)-1,3,4-oxadiazol-2-yl)methyl) thiazolidine-2,4-dione]	< 10
O=C(NCCS(=O)(=O)C(c1nnc(CC2SC(=O)NC2=O)o1)c1nc2c(F)cc(-c3ccccc3)cc2s1)OCc1ccccc1 (stereo not drawn) [Example 92, benzyl (2-(((5-((2,4-dioxothiazolidin-5-yl)methyl)-1,3,4-oxadiazol-2-yl)(4-fluoro-6-phenyl-benzo[d]thiazol-2-yl)methyl)sulfonyl)ethyl) carbamate]	< 10
CC(C)(C)CN1CC(c2nnc(C(c3nc4ccc(-c5ccccc5)cc4s3)S(=O)(=O)Cc3ccccc3)o2)C1 (stereo not drawn) [Example 82, 2-((Benzylsulfonyl)(6-phenylbenzo[d]thiazol-2-yl)methyl)-5-(1-neopentylazetidin-3-yl)-1,3,4-oxadiazole]	26
CS(=O)(=O)C(c1nnc(CC2NC(=O)NC2=O)o1)c1nc2ccc(-c3ccc(C(=O)N4CCOCC4)cc3)cc2s1 (stereo not drawn) [Example 16, 5-((5-((methylsulfonyl)(6-(4-(morpholine-4-carbonyl)phenyl)benzo[d]thiazol-2-yl)methyl)-1,3,4-oxadiazol-2-yl)methyl)imidazolidine-2,4-dione]	46
NS(=O)(=O)NCc1nnc(C(c2nc3ccc(-c4ccccc4)cc3s2)S(=O)(=O)C2CCOCC2)o1 (stereo not drawn) [Example 53, N-({5-[6-phenyl-1,3-benzothiazol-2-yl (tetrahydro-2H-pyran-4-ylsulfonyl)methyl]-1,3,4-oxadiazol-2-yl}methyl) sulfuric diamide]	< 10
CC(C)S(=O)(=O)C(c1nnc(CNS(N)(=O)=O)o1)c1nc2ccc(-c3ccccc3)cc2s1 (stereo not drawn) [Example 49]	< 10
